Measured values as given in the SangsterLogP compilation.

Experiments:
[1] = method code SF-AS, from DOI: 10.1021/jf00090a013

| logP | logP [1] | Compound |
| --- | --- | --- |
|  | 3.53 | CNC(=O)N(C)C(=O)Nc1cc(C(C)C)ccc1F |
| 2.14 |  | CNC(=O)N(C)C(=O)Nc1cc(OC)ccc1F |
| 2.4 |  | CNC(=O)N(C)C(=O)Nc1cc(F)ccc1F |
|  | 3.23 | CCc1ccc(F)c(NC(=O)N(C)C(=O)NC)c1 |
| 1.82 |  | CNC(=O)N(C)C(=O)Nc1cc(C(C)=O)ccc1F |
|  | 3.58 | CNC(=O)N(C)C(=O)Nc1cc(I)ccc1F |

More lines, now with the values behind:

| Compound | logP | logP [1] |
| --- | --- | --- |
| CNC(=O)N(C)C(=O)Nc1cc(Cc2ccccc2)ccc1F | 3.9 |  |
| CNC(=O)N(C)C(=O)Nc1cc([N+](=O)[O-])ccc1F |  | 2.3 |
| CNC(=O)N(C)C(=O)Nc1ccccc1F |  | 2.12 |
| CNC(=O)N(C)C(=O)Nc1cc(-c2ccccc2)ccc1F | 3.78 |  |
| CNC(=O)N(C)C(=O)Nc1cc(S(=O)(=O)C(C)C)ccc1F | 1.87 |  |
| CNC(=O)N(C)C(=O)Nc1cc(C(=O)OC)ccc1F |  | 2.28 |
| CNC(=O)N(C)C(=O)Nc1cc(OC(C)C)ccc1F |  | 3.08 |
| CNC(=O)N(C)C(=O)Nc1cc(C2CCCCC2)ccc1F |  | 4.58 |
| CCC(CC)c1ccc(F)c(NC(=O)N(C)C(=O)NC)c1 |  | 4.46 |
| CNC(=O)N(C)C(=O)Nc1cc(C(C)(C)C)ccc1F | 3.96 |  |
